From ChEMBL document CHEMBL1201862, “PubChem BioAssay data set” (2004)
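A five-concentration, 48-hour dose response in 96-well plates underlies each endpoint, interpolated linearly between surrounding concentrations. GI50 marks 50% less growth.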 Active and inactive are the calls of the source. Cut-off read from the data, not from the text of the source: active = GI50 up to about 1.1 µM and inactive = higher.

Legend:
Assay in all cases: NCI-60 cell line screen, 48 h
HT-29 = system: HT-29
EKVX = system: EKVX
K562 = system: K562
MDA-MB-231 = system: MDA-MB-231
SF-268 = system: SF-268
IGROV-1 = system: IGROV-1
NCI-H23 = system: NCI-H23
LOX IMVI = system: LOX IMVI
NCI-H522 = system: NCI-H522
UACC-62 = system: UACC-62
U-251 = system: U-251
OVCAR-8 = system: OVCAR-8
SN12C = system: SN12C
OVCAR-5 = system: OVCAR-5
Malme-3M = system: Malme-3M
SK-MEL-5 = system: SK-MEL-5
M14 = system: M14
OVCAR-4 = system: OVCAR-4
RPMI-8226 = system: RPMI-8226
DU-145 = system: DU-145

| Structure (SMILES) | GI50 (HT-29) | GI50 (EKVX) | GI50 (K562) | GI50 (MDA-MB-231) | GI50 (SF-268) | GI50 (IGROV-1) | GI50 (NCI-H23) | GI50 (LOX IMVI) | GI50 (NCI-H522) | GI50 (UACC-62) | GI50 (U-251) | GI50 (OVCAR-8) | GI50 (SN12C) | GI50 (OVCAR-5) | GI50 (Malme-3M) | GI50 (SK-MEL-5) | GI50 (M14) | GI50 (OVCAR-4) | GI50 (RPMI-8226) | GI50 (DU-145) |
| --- | --- | --- | --- | --- | --- | --- | --- | --- | --- | --- | --- | --- | --- | --- | --- | --- | --- | --- | --- | --- |
| CC(=O)C1=C(C)N(c2ccc(C)cc2)C2(O)C=CC(=O)C3C(=O)N(c4ccccc4)C(=O)C132 (stereo not drawn) | 18.6 µM (inactive) | 32.6 µM (inactive) | 3.42 µM (inactive) | 22.5 µM (inactive) | 31 µM (inactive) | 8.43 µM (inactive) | 17.1 µM (inactive) | 3.08 µM (inactive) | 7.89 µM (inactive) | 16.7 µM (inactive) | 17.7 µM (inactive) | 23.3 µM (inactive) | 15.5 µM (inactive) | 55.2 µM (inactive) | 19.6 µM (inactive) | 15.4 µM (inactive) | 24.4 µM (inactive) | 20.8 µM (inactive) | 3.85 µM (inactive) | 23.4 µM (inactive) |
| Cc1csc2c1C(=O)c1ccsc1C2=O | 2.65 µM (inactive) | 7.98 µM (inactive) | 2.85 µM (inactive) | 2.35 µM (inactive) | 2.96 µM (inactive) | 3.24 µM (inactive) | 1.16 µM (inactive) | 1.26 µM (inactive) | 2.21 µM (inactive) | 1.69 µM (inactive) | 3.4 µM (inactive) | 2.99 µM (inactive) | 2.2 µM (inactive) | 1.96 µM (inactive) | 0.343 µM (active) | 0.589 µM (active) | 0.778 µM (active) | 1.89 µM (inactive) | 3.61 µM (inactive) | 1.88 µM (inactive) |
| COC(=O)C1=C(C=O)C2C=CC1C2 (stereo not drawn) | > 66.2 µM (inactive) | 98.4 µM (inactive) | 34.2 µM (inactive) | > 100 µM (inactive) | > 83.4 µM (inactive) | > 100 µM (inactive) | > 97.5 µM (inactive) | > 60.5 µM (inactive) | 44.5 µM (inactive) | > 93.1 µM (inactive) | > 88.5 µM (inactive) | 55 µM (inactive) | > 71.8 µM (inactive) | > 100 µM (inactive) | 56.9 µM (inactive) | > 100 µM (inactive) | 45.1 µM (inactive) | > 82.8 µM (inactive) | 51.1 µM (inactive) | > 100 µM (inactive) |
| Cc1cc(S(=O)(=O)Nc2nc3cscc3c(=O)n2N)c(S)cc1Cl | 39.6 µM (inactive) | 70.1 µM (inactive) | 60.5 µM (inactive) | 73.8 µM (inactive) | 17.7 µM (inactive) | 50.7 µM (inactive) | 55.2 µM (inactive) | 36.5 µM (inactive) | 32.8 µM (inactive) | 31.9 µM (inactive) | 37.3 µM (inactive) | 46.2 µM (inactive) | 56.4 µM (inactive) | 26.5 µM (inactive) | 39.4 µM (inactive) | 41 µM (inactive) | 31.9 µM (inactive) | 39.3 µM (inactive) | 96.6 µM (inactive) | 40.3 µM (inactive) |
| CNC(=S)N/N=C(\C)c1cc(OC)ccc1O | 0.951 µM (active) | > 100 µM (inactive) | 3.22 µM (inactive) | > 100 µM (inactive) | > 100 µM (inactive) | > 64.9 µM (inactive) | > 100 µM (inactive) | > 100 µM (inactive) | 3.9 µM (inactive) | > 100 µM (inactive) | > 100 µM (inactive) | > 100 µM (inactive) | > 100 µM (inactive) | > 100 µM (inactive) | > 100 µM (inactive) | > 44.3 µM (inactive) | > 92.5 µM (inactive) | > 100 µM (inactive) | > 31.3 µM (inactive) | > 100 µM (inactive) |
| c1cc(C2N3CCCN2CC3)ccn1 (stereo not drawn) | > 100 µM (inactive) | > 100 µM (inactive) | 28.2 µM (inactive) | > 100 µM (inactive) | 8.38 µM (inactive) | 96.6 µM (inactive) | 68.2 µM (inactive) | 57.9 µM (inactive) | 4.85 µM (inactive) | > 100 µM (inactive) | 58.3 µM (inactive) | 53.8 µM (inactive) | 79.8 µM (inactive) | > 100 µM (inactive) | 21.9 µM (inactive) | 48.2 µM (inactive) | 61.1 µM (inactive) | 86.7 µM (inactive) | 24.1 µM (inactive) | > 100 µM (inactive) |
| O=C(c1cccc(F)c1F)N1CCc2c([nH]c3ccccc23)C1c1ccc2c(c1)OCO2 (stereo not drawn) | 8.32 µM (inactive) | 8.32 µM (inactive) | 4.22 µM (inactive) | 7.87 µM (inactive) | 27.3 µM (inactive) | 16.2 µM (inactive) | 11.7 µM (inactive) | 20.2 µM (inactive) | 7.8 µM (inactive) | 5.24 µM (inactive) | 11.1 µM (inactive) | 31.3 µM (inactive) | 14.3 µM (inactive) | 30.1 µM (inactive) | 28.4 µM (inactive) | 3.63 µM (inactive) | 3.85 µM (inactive) | 11.1 µM (inactive) | 8.2 µM (inactive) | 18.2 µM (inactive) |
| C=CC1(O)CCCC=C1COCc1ccccc1 (stereo not drawn) | 93.5 µM (inactive) | > 100 µM (inactive) | 32.2 µM (inactive) | > 100 µM (inactive) | 67 µM (inactive) | 16.6 µM (inactive) | 98.6 µM (inactive) | 18.8 µM (inactive) | 16 µM (inactive) | > 100 µM (inactive) | > 100 µM (inactive) | 53 µM (inactive) | 70 µM (inactive) | > 100 µM (inactive) | > 100 µM (inactive) | 52.6 µM (inactive) | > 100 µM (inactive) | 38.4 µM (inactive) | 23.8 µM (inactive) | > 100 µM (inactive) |
| Cc1ccc2c(c1)C(=O)c1nc(C)ccc1C2=O | 17 µM (inactive) | 29.4 µM (inactive) | 37.1 µM (inactive) | 13.9 µM (inactive) | 32 µM (inactive) | 22.1 µM (inactive) | 19.5 µM (inactive) | 19.8 µM (inactive) | 28.7 µM (inactive) | 24.3 µM (inactive) | 35.5 µM (inactive) | 27 µM (inactive) | 26.5 µM (inactive) | 86.1 µM (inactive) | 4.95 µM (inactive) | 6.9 µM (inactive) | 32.7 µM (inactive) | 28.2 µM (inactive) | 21.3 µM (inactive) | 32.3 µM (inactive) |
| Cc1cc(NCc2ccccc2)c2ccccc2[n+]1CCCCCCCCCC[n+]1c(C)cc(NCc2ccccc2)c2ccccc21.[O-][Cl+3]([O-])([O-])[O-].[O-][Cl+3]([O-])([O-])[O-] | 0.345 µM (active) | 1.19 µM (inactive) | 0.271 µM (active) | 0.472 µM (active) | 0.478 µM (active) | 2.98 µM (inactive) | 0.247 µM (active) | 0.238 µM (active) | 19.5 µM (inactive) | 0.31 µM (active) | 0.0964 µM (active) | 0.431 µM (active) | 0.279 µM (active) | 2.19 µM (inactive) | 4.06 µM (inactive) | 0.171 µM (active) | 1.21 µM (inactive) | 1.3 µM (inactive) | 0.124 µM (active) | 0.692 µM (active) |
| COc1cc2c(c(OC)c1OC)-c1ccc(SC)c(=O)cc1C(NC=O)CC2 (stereo not drawn) | < 0.01 µM (active) | 3.6 µM (inactive) | < 0.01 µM (active) | < 0.01 µM (active) | < 0.01 µM (active) | < 0.01 µM (active) | < 0.01 µM (active) | < 0.01 µM (active) | < 0.01 µM (active) | < 0.01 µM (active) | < 0.01 µM (active) | < 0.01 µM (active) | < 0.01 µM (active) | 0.164 µM (active) | < 0.01 µM (active) | < 0.01 µM (active) | < 0.01 µM (active) | 66.4 µM (inactive) | < 0.01 µM (active) | < 0.01 µM (active) |
| COc1ccccc1-n1c(=O)n(C)c(=O)n1C(C)(C)C | > 100 µM (inactive) | > 100 µM (inactive) | > 100 µM (inactive) | > 100 µM (inactive) | > 100 µM (inactive) | – | > 100 µM (inactive) | > 100 µM (inactive) | 29.3 µM (inactive) | > 100 µM (inactive) | > 100 µM (inactive) | > 100 µM (inactive) | > 100 µM (inactive) | > 100 µM (inactive) | > 100 µM (inactive) | > 100 µM (inactive) | > 100 µM (inactive) | > 100 µM (inactive) | > 100 µM (inactive) | > 100 µM (inactive) |
| COCOC1/C=C/CCCC#C[C@H](C)C(=O)CC1 (stereo partly drawn) | 3.69 µM (inactive) | 10.4 µM (inactive) | 2.7 µM (inactive) | 4.25 µM (inactive) | 12.2 µM (inactive) | 9.27 µM (inactive) | 5.97 µM (inactive) | 3.05 µM (inactive) | 5.7 µM (inactive) | 10 µM (inactive) | 12.2 µM (inactive) | 14.5 µM (inactive) | 11.2 µM (inactive) | 7.38 µM (inactive) | 6.68 µM (inactive) | 8.77 µM (inactive) | 8.15 µM (inactive) | 7.83 µM (inactive) | 2.21 µM (inactive) | 14.6 µM (inactive) |
| N/C(CSCCSC/C(N)=N/O)=N\O | > 100 µM (inactive) | > 100 µM (inactive) | > 100 µM (inactive) | > 100 µM (inactive) | > 100 µM (inactive) | > 100 µM (inactive) | > 100 µM (inactive) | > 100 µM (inactive) | > 100 µM (inactive) | > 100 µM (inactive) | > 100 µM (inactive) | – | > 100 µM (inactive) | > 100 µM (inactive) | > 100 µM (inactive) | > 100 µM (inactive) | > 100 µM (inactive) | > 100 µM (inactive) | > 100 µM (inactive) | > 100 µM (inactive) |
